Source: US7166609B2, “Pyrimidine-4,6-dicarboxylic acid diamides for selectively inhibiting collagenases” (Sanofi-Aventis Deutschland GmbH, priority 2002, dated 2007)

Each compound was assayed against T1, catalytic domain of human collagenase 3 (MMP-13) (Homo sapiens, UniProt P45452) (assay: Enzyme activity of the catalytic domain of human collagenase 3 (MMP-13), fluorogenic substrate). Conditions: catalytic domain, activated proenzyme, pH 7.5; read-out: IC50 MMP13.
T1 construct: Determining the enzyme activity of the catalytic domain of human collagenase 3 (MMP-13); purchased INVITEK, Berlin 30 100 803
Format: biochemical
Procedure: Determining the enzyme activity of the catalytic domain of human collagenase 3 (MMP-13).
Activating the proenzyme:
2 parts by volume of proenzyme are incubated with 1 part by volume of APMA solution at 37° C. for 1.5 hours. The APMA solution is prepared from a 10 mmol/L solution of p-aminophenylmercuric acetate in 0.1 mmol/L NaOH by diluting with 3 parts by volume of tris/HCl buffer, pH 7.5 (see below). The pH is adjusted to between 7.0 and 7.5 by adding 1 mmol/L HCl. After the enzyme has been activated, it is diluted to a concentration of 1.67 μg/ml using the tris/HCl buffer.
In order to measure the enzyme activity, 10 μL of enzyme solution are incubated for 15 minutes with 10 μL of a 3% (v/v) buffered solution of dimethyl sulfoxide (reaction 1). In order to measure the enzyme inhibitor activity, 10 μL of enzyme solution are incubated with 10 μL of a 3% (v/v) buffered solution of dimethyl sulfoxide containing the enzyme inhibitor (reaction 2).
In the case of both reaction 1 and reaction 2, the enzyme reaction is monitored by fluorescence spectroscopy (328 nm (extinction)/393 nm (emission)) after adding 10 μL of a 3% (v/v) aqueous solution of dimethyl sulfoxide containing 0.75 mmol of the substrate/L.
The enzyme activity is depicted as increase in extinction/minute.
The effect of the inhibitor is calculated as a percentage inhibition using the following formula: % inhibition=100−[(increase in extinction/minute in reaction 2)/(increase in extinction/minute in reaction 1)×100].
The IC50, i.e. the inhibitor concentration which is required for inhibiting the enzyme activity by 50%, is determined graphically by plotting the percentage inhibitions at different inhibitor concentrations.
The buffer solution contains 0.05% Brij (Sigma, Deisenhofen, Germany) and 0.1 mol of tris/HCl/L, 0.1 mol of NaCl/L and 0.01 mol of CaCl2/L (pH=7.5). The enzyme solution contains 1.67 μg of the enzyme domain/mL.
The substrate solution contains 0.75 mmol/L of the fluorogenic substrate (7-methoxycoumarin-4-yl)acetyl-Pro-Leu-Gly-Leu-3-(2′,4′-dinitrophenyl)-L-2,3-diaminopropionyl-Ala-Arg-NH2 (Bachem, Heidelberg, Germany).

IC50 [nM]	Compound
80	COc1cccc(CNC(=O)c2cc(C(=O)NCc3cccc(NC(=O)OC(C)C)c3)ncn2)c1 [Example 150]
9	COc1cccc(CNC(=O)c2cc(C(=O)NCc3ccc(C(=O)N4CCOCC4)cc3)ncn2)c1 [Example 151]
15	CCN(CC)C(=O)c1ccc(CNC(=O)c2cc(C(=O)NCc3ccc(F)c(Cl)c3)ncn2)cc1 [Example 153]
22	O=C(NCc1ccc(C(=O)N2CCOCC2)cc1)c1cc(C(=O)NCc2ccc(F)c(Cl)c2)ncn1 [Example 154]
